From patent publication EP2457906A1, “Derivatives of 1,2,4-benzothiadiazine dioxide, their preparation and use as allosteric modulators of the AMPA receptor” (Universita'del Salento, priority 2010, dated 2012)

Test system: AMPA-kainate receptors
Test: Patch-clamp (whole-cell voltage-clamp) recording of kainate-evoked currents in primary cultures of cortical neurons
Type: cell-based
Conditions: rat cortical neurons; for type of allosteric modulation of the AMPA receptor: effect on current induced by Kainate; for Variation in the current induced by Kainate, %: compound at 10 µM, mean ± SE (n = 4-6)
Procedure: The pharmacological studies were conducted using the patch-clamp technique on primary cultures of cortical neurons.
The primary neuronal cultures were obtained from 1-day-old Sprague-Dawley rats. The cells were dispersed with trypsin (0.24 mg/ml) and plated out at a density of 10^6 cells/ml on 35mm Petri dishes pretreated with poly-L-lysine (10 µg/ml). The cells were cultivated in Eagle's Basal Medium with the addition of 10% foetal calf serum, 2 mM glutamine and 100 µg/ml gentamicin, and stored in an incubator at 37°C in 5% carbon dioxide.
To prevent astroglial proliferation, cytosine arabinofuranoside was added (1-10 µM) to the cultures 24h after plating out.
The patch-clamp recordings were performed on a single cell after 7 days in culture using the voltage-clamp technique in whole-cell configuration (Hamill OP, Marty A, Neher E, Sakmann B, Sigworth FJ (1981): Improved patchclamp techniques for high-resolution current recording from cell and cell-free membrane patches. Pflugers Arch, 85-100). […] The currents were amplified with an Axopatch 1 D amplifier (Axon Instruments, Foster City, CA), filtered at 5 kHz and digitised at 10 kHz using the pClamp software (Axon Instruments, Foster City, CA).
The intracellular solutions contained: KCI 140mM, MgCl2 3mM, EGTA 5mM, HEPES 5mM, ATP-Na 2mM, and were brought to pH 7.3 with KOH. The cells were continuously perfused with an external solution containing: NaCl 145mM, KCI 5mM, CaCl2 1mM, HEPES 5mM, glucose 5mM, saccharose 20Mm, and brought to pH 7.4 with NaOH.
The compounds tested were dissolved in DMSO and diluted to the final concentration in the extracellular solution. (The DMSO in the final concentration is less than 0.1%.) The kainate (SIGMA) was dissolved in the extracellular solution. All of the substances were applied directly by gravity through a "Y-tube" perfusion system (Murase K, Ryu PD, Randic M (1989). Excitatory and inhibitory amino acids and peptide-induced responses in acutely isolated rat spinal dorsal horn neurons. Neurosci Lett 103, 56-63).
The electrophysiological data was analysed using the software pCLAMP 6.3 (Axon Instruments).
The compounds according to the invention have proven to be potent allosteric modulators of the response mediated by AMPA-kainate receptors. […] The values are expressed as the mean ± SE (n = 4-6).

CC1=Nc2c(-c3ccco3)cc(Cl)cc2S(=O)(=O)N1 [(6), 7-chloro-5-(2-furyl)-3-methyl-1,2,4-benzothiadiazine 1,1-dioxide]
type of allosteric modulation of the AMPA receptor (10 µM): negative allosteric modulators | Variation in the current induced by Kainate, %: -21±9%

CCC1Nc2c(-c3ccco3)cc(Cl)cc2S(=O)(=O)N1 (stereo not drawn) [(4), 7-chloro-5-(2-furyl)-3-ethyl-3,4-dihydro-2H-1,2,4-benzothiadiazine 1,1-dioxide]
type of allosteric modulation of the AMPA receptor (10 µM): negative allosteric modulators | Variation in the current induced by Kainate, %: -32±12%

CC1Nc2c(-c3ccsc3)cc(Cl)cc2S(=O)(=O)N1 (stereo not drawn) [(2), 7-chloro-3-methyl-5-thien-3-yl-3,4-dihydro-2H-1,2,4-benzothiadiazine 1,1-dioxide]
type of allosteric modulation of the AMPA receptor (10 µM): positive allosteric modulator | Variation in the current induced by Kainate, %: 214±41%

O=S1(=O)NCNc2c(-c3ccco3)cc(Cl)cc21 [(5), 7-chloro-5-(2-furyl)-3,4-dihydro-2H-1,2,4-benzothiadiazine 1,1-dioxide]
type of allosteric modulation of the AMPA receptor (10 µM): positive allosteric modulator | Variation in the current induced by Kainate, %: 20±5%

CC1Nc2c(-c3ccco3)cc(Cl)cc2S(=O)(=O)N1 (stereo not drawn) [(3), 7-chloro-5-(2-furyl)-3-methyl-3,4-dihydro-2H-1,2,4-benzothiadiazine 1,1-dioxide]
type of allosteric modulation of the AMPA receptor (10 µM): positive allosteric modulator | Variation in the current induced by Kainate, %: 80±16%

CC1Nc2c(-c3ccoc3)cc(Cl)cc2S(=O)(=O)N1 (stereo not drawn) [(1), 7-chloro-5-(3-furyl)-3-methyl-3,4-dihydro-2H-1,2,4-benzothiadiazine 1,1-dioxide]
EC50 (potentiation of currents induced by Kainate, calculated from dose/response data of Figure 1): 1100 nM | type of allosteric modulation of the AMPA receptor (10 µM): positive allosteric modulator | increase of the current induced by Kainate (10 µM, text statement on the data of Table 1): around 360 times | EC2X (i.e. the concentration at which the AMPA receptor currents are potentiated 2 times) (calculated from dose/response data of Figure 1): 500 nM | Variation in the current induced by Kainate, %: 358±80%
